Laboratory results from patent publication US20230398125A1, “TREATING HEPATITIS” (Albireo AB, priority 2022, published 2023).
Like-named read-outs stand apart in the source and are kept apart here.

Tested on: HBV (HepG2 AD38 genotype D)
Test: HBV infection of primary human hepatocytes, extracellular HBV DNA by qPCR
Type: cell-based, hepatitis B virus
Conditions: for EC50: Hepatitis B virus

With CCCCC1CN(c2ccccc2)c2cc(SC)c(O/C=C(\F)C(=O)O)cc2S(=O)(=O)N1C (stereo not shown) [Compound 1, (Z)-3-((3-butyl-2-methyl-7-(methylthio)-1,1-dioxido-5-phenyl-2,3,4,5-tetrahydro-1,2,5-benzothiadiazepin-8-yl)oxy)-2-fluoroacrylic acid] the EC50 (HepG2, 18 h, Study #01, compound given 18 h post-infection) was > 1 nM, the EC50 (HepG2, Study #01, #02 and #03 merged, four parameter regression, read-out: EC50 from fitted curve of merged data) was 4.9 nM and the EC50 (HepG2, Study #01, compound given 18 h prior to infection, PHH, HBV DNA, read-out: EC50) was 4 nM. For the same molecule, the EC50 (HepG2, Study #02, PHH, read-out: EC50) was < 6.3 nM, the EC50 (HepG2, Study #03, PHH, read-out: EC50) was 11 nM and the “antiviral activity/potency when given 18 h post-infection” value (Study #01) was “lost”. For the same molecule, the Max inhibition (Study #01, 18 h prior to infection) was 97%, the Max inhibition (Study #02) was 88% and the “inhibition at the lowest concentration tested” value (Study #02, 6.25 nmol/L) was 58%. For the same molecule, the Max inhibition (Study #03) was 63%.
